Test results: patent US9169492B2, “Compositions and methods for enhanced parvovirus transduction” (priority 2011, dated 2015)
Peptide text beside a SMILES is read from it. * marks the point of attachment. Cbz = O=C(OCc1ccccc1)*

How the values were obtained:
[1] = tested on: FVIII−/− mice; test: Canine FVIII activity (Coatest) in plasma of hemophilia A mice after portal vein AAV.cFVIII with or without proteasome inhibitor; assay type: in vivo, mouse; settings: for week at which FVIII activity became detectable: AAV2.cFVIII vector, drug rows = co-administered with this vector (FIG. 2C); for enhanced factor VIII expression on average: hemophilia mice
Protocol: (§1) To avoid anticipated antibody-mediated immune responses to the canine FVIII transgene, all FVIII^−/− mice received cyclophosphamide (Sigma Aldrich, St Louis, Mo.) injected intraperitoneally in 3 doses of 100 μg each on days −3, 0, and +3, as previously described^5.
(§2) Canine FVIII activity in mouse plasma was measured by the Coatest SP4 kit (Chromogenix, DiPharma, West Chester, Ohio) following the manufacture's instruction with modification. Normal canine plasma (regarded as 100 percent activity=1 IU/ml) was serially diluted into FVIII^−/− pooled mouse plasma to generate the standard curve. Neutralizing antibodies to canine FVIII in mouse were measured by the Bethesda assay using a START 4 Coagulation Analyzer as described^42 (Diagnostica Stago, Asnières, France). Human factor IX was measured based on one-stage factor IX activity assay (FIX-specific aPTT) as previously described, using a START 4 Coagulation Analyzer (Diagnostica Stago, Asnières, France)^43.
Studies were carried out to analyze the effect of combination therapy using large transgene cassette FVIII in hemophilic A mice using the same genetic background (C57B1/6). […] Virus was characterized for total particle number by qPCR, virion integrity by electron microscopy, capsid ratio by silver stain, and DNA genome size by alkaline gel electrophoresis.

[2] = preclinical toxicity data (ref 23); cited from earlier work
[3] = tested on: 293T cells; test: FACScan analysis of GFP expression in AAV2.GFP-transduced cells with or without bortezomib; assay type: cell-based; settings: AAV2.GFP transduction and bortezomib co-administration
Protocol: 293T cells were grown in Dulbecco's modified Eagle's medium (Mediatech, Herndon, Va.) supplemented with 9% fetal bovine serum and 1% penicillin/streptomycin solution and transduced at a multiplicity of infection of 1. At 3-5 days after transduction, cells were harvested, fixed in phosphate-buffered saline (PBS) containing 2% formaldehyde/0.2% glutaraldehyde, and analyzed by FACScan as previously described^40.

[4] = tested on: hemophilia A dogs; test: Tolerability of vector and bortezomib in hemophilia A dogs; assay type: in vivo, dog; settings: no liver transaminase elevations, neurologic symptoms or changes in hematologic parameters
Protocol: Using identical AAV cFVIII vector cassettes, studies were carried out to determine whether proteasome inhibitor augmentation of the expression of large transgenes translates to the canine hemophilia A model. […] Four hemophilia A pups received the same AAV therapy and received a single I.V. dose of the proteasome inhibitor bortezomib at FDA-approved dose of (1.3 mg/m^2). […] Specifically, no liver transaminase elevations, neurologic symptoms or changes in hematologic parameters were observed.

[5] = tested on: FVIII−/− mice; test: Liver ALT, AST and complete blood counts in vector-treated hemophilia A mice; assay type: in vivo, mouse; settings: mice receiving vector alone or in combination with bortezomib
Text: In these mice, canine factor VIII peaked at 8 weeks, then began to decrease. […] Bortezomib co-administration improved initial and sustained canine factor VIII expression. […] To facilitate comparison of the proteasome inhibitor effect upon vectors generated from wtAAV-sized factor IX transgene and oversized factor VIII transgene, the same time points are graphed in FIGS. 2A and 2B (factor IX) and FIGS. 2C and 2D (factor VIII). Bortezomib treatment was associated with a proportionately greater augmentation of the oversize transgene expression than that of the smaller transgene.

[6] = tested on: FIX−/− mice; test: Human factor IX activity (one-stage FIX-specific aPTT) in hemophilia B mice after portal vein AAV.hFIX with or without bortezomib; assay type: in vivo, mouse; settings: 20 weeks
Protocol: as §1, §2
Studies were conducted to test the effect of combination therapy using bortezomib on in vivo correction of hemophilic animals. First, a vector carrying a genome approximately the same size as wild type AAV was used for the correction of hemophilia B in a mouse model. […]

[7] = Bortezomib dose tolerability in mice without AAV vector; assay type: in vivo
Protocol: The primary objective of these studies was to validate in small and large animal “combination therapy” using FDA approved drug bortezomib and AAV transgene vectors. The present studies describe the use of the proteasome inhibitor, bortezomib (also known as Velcade®), as this is the only proteasome inhibitor currently approved for clinical use by the FDA. Bortezomib, like most chemotherapy is dosed based on body surface area. For all large animal studies, the FDA-approved dose of (1.3 mg/m^2) was used. However preclinical toxicity data has established a safe bortezomib dose for mice of 0.5 mg per kilogram of body weight^23. […] Even though the dosing in mice was calculated on a per kilogram body weight basis vs. clinically recommended body surface area, the total dose used in mice is roughly equivalent to total dose used in dog studies described herein.

[8] = tested on: Factor VIII−/− mice; test: Expression from codon-optimized AAV8 factor VIII vector with or without bortezomib; assay type: in vivo, mouse; settings: ssAAV8 3×10^10 vg/animal portal vein + bortezomib 0.5 mg/kg; persisted 12 weeks
Protocol: Factor VIII^−/− mice received 3×10^10 vg/animal single strand AAV serotype 8 vector encoding an oversized factor VIII transgene (n=5 mice per treatment group). The canine factor VIII cDNA sequence incorporated in the vector was engineered for optimal mammalian codon usage and GC nucleotide content. Mice received vector infusion to portal vein either alone or in combination with 0.5 mg/kg of proteasome inhibitor bortezomib (PI). While it has been established that codon-optimization increases expression from clotting factor VIII and IX vectors, it was not established whether PI could further augment the more efficient codon-optimized vectors.

[9] = bortezomib co-administered with AAV2 cFVIII vector

SMILES | week at which FVIII activity became detectable [1] [week] | FVIII expression increased on average vs vector alone ([1]; mouse, in vivo) [%] | effect on factor VIII expression ([1]; mouse, in vivo) | safe bortezomib dose for mice [2] | percentage of cells expressing transgene [3] | tolerability [4] | factor VIII activity maintained for a year [1, 9] | peak factor VIII activity at week 8 [1, 9] [IU/ml] | persistence of enhanced expression without further proteasome inhibitor treatment ([1]; hemophilic mice) [year] | factor VIII expression higher on average vs AAV8.cFVIII vector alone ([1]; mouse, in vivo) [%] | enhanced factor VIII expression on average ([1]; single dose of bortezomib given with AAV2 factor VIII vector) [%] | enhanced factor VIII expression on average ([1]; single dose of bortezomib given with AAV8 factor VIII vector) [%] | liver ALT, AST and complete blood counts [5] | higher factor IX activity vs vector alone ([6]; bortezomib single dose co-administered with AAV8 factor IX vector) [%] | increase in factor IX expressed vs vector alone ([6]; bortezomib single dose with ssAAV2.FIX) [%] | tolerability ([7]; 0.5 mg/kg, without AAV vector) | tolerability ([7]; higher dose 1.0 mg/kg) | expression of codon-optimized factor VIII [8]
CC(C)C[C@@H](C=O)NC(=O)[C@H](CC(C)C)NC(=O)[C@H](CC(C)C)NC(=O)OCc1ccccc1 [MG-132] (Cbz-Leu-Leu-Leu-aldehyde) | 2 | > 150 | slightly increased factor VIII expression was observed in the first month | – | – | – | – | – | – | – | – | – | – | – | – | – | – | –
CC(C)C[C@H](NC(=O)[C@H](Cc1ccccc1)NC(=O)c1cnccn1)B(O)O [bortezomib] | 1 | > 550 | – | 0.5 mg per kilogram of body weight | increase | well tolerated | more than 3% | 0.11±0.06 | > 1 | 259 | ~600 | ~300 | did not show any evidence of hepatic or hematologic toxicity | ~24 | 83 | tolerated the proteasome inhibitors without apparent side effect or change in hematologic parameters | occasionally mice receiving this dose displayed decreased activity and feeding | augmented expression
